Results taken from publication PMC6269904, “Two New Monoterpene Glycosides from Qing Shan Lu Shui Tea with Inhibitory Effects on Leukocyte-Type 12-Lipoxygenase Activity” (Molecules, 2013).

Assays:
[1] = target: T1, leukocyte-type 12-lipoxygenase (leukocyte-type 12-LOX), porcine (Sus scrofa, UniProt P16469); assay: RP-HPLC of HETE products after reduction; type: biochemical
T1 construct: gene ALOX15; partially purified from J774A.1 cells overexpressing the porcine enzyme
T1 sequence (P16469 1-663): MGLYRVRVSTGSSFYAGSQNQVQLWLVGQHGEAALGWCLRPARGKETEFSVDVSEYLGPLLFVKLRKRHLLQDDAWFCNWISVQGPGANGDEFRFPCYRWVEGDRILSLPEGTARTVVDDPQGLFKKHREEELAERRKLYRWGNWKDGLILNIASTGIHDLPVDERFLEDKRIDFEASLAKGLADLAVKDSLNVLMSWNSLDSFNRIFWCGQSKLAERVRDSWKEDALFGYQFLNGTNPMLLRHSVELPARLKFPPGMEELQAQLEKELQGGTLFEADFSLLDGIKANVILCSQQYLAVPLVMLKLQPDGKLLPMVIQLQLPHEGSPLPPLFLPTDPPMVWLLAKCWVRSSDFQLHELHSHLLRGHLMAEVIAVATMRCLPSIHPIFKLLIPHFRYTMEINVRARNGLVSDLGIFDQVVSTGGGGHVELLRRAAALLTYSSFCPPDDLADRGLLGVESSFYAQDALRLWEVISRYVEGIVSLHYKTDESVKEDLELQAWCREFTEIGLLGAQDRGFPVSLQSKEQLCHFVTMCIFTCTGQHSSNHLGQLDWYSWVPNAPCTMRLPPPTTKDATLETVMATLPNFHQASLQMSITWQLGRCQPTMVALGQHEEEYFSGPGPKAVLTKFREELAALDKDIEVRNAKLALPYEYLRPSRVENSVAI

[2] = target: T1, leukocyte-type 12-lipoxygenase (leukocyte-type 12-LOX), porcine; assay: RP-HPLC of HETE products ([…] nm) after reduction; type: biochemical; settings: 25 μM arachidonic acid, 100 mM Tris-HCl pH 7.4, 30 °C, 5 min preincubation; partially purified enzyme

IC50 [1] [nM] | Structure (SMILES) | no inhibition [2]
1700 | C/C(=C\CO[C@@H]1O[C@H](CO)[C@@H](OC(=O)/C=C/c2ccc(O)cc2)[C@H](O[C@@H]2O[C@@H](C)[C@H](O)[C@@H](O)[C@H]2O)[C@H]1O)C/C=C/C(C)(C)OO [compound 1, (2E,5E)-7-hydroperoxy-3,7-dimethyl-2,5-octadienyl-O-(α-L-rhamnopyranosyl)-(1″→3′)-(4′″-O-trans-p-coumaroyl)-β-D-glucopyranoside] | –
700 | C/C(=C\CO[C@@H]1O[C@H](CO)[C@@H](OC(=O)/C=C\c2ccc(O)cc2)[C@H](O[C@@H]2O[C@@H](C)[C@H](O)[C@@H](O)[C@H]2O)[C@H]1O)C/C=C/C(C)(C)OO [compound 2, (2E,5E)-7-hydroperoxy-3,7-dimethyl-2,5-octadienyl-O-(α-L-rhamnopyranosyl)-(1′′→3′)-(4′′′-O-cis-p-coumaroyl)-β-D-glucopyranoside] | –
– | O=C(O)/C=C/c1ccc(O)cc1 [p-coumaric acid] | showed no inhibition on leukocyte-type 12-LOX activity
